Experimental data from patent publication US12178841B2, “Treatment of non-cystic fibrosis bronchiectasis” (priority 2021, dated 2024).
Entries after “also recorded” stand apart in the source; their conditions may differ. Where two headings read alike, the source gives them in different places.

Key:
[1] = ORBIT-3 and RESPIRE-2 trials; cited from earlier work
[2] = human, in vivo; cited from earlier work
[3] = PROMIS I Phase III clinical study: pulmonary exacerbations under inhaled CMS by I-neb vs placebo; format: in vivo, human
[4] = 1 MIU [33 mg CBA] via I-neb twice a day, up to 6 months, placebo 0.45% saline, cited from earlier work
[5] = parameters: species or system human; conditions: in vivo
From the text: Safety Variables • incidence of TEAEs; • absolute changes in percent-predicted FEV1 from baseline (Visit 2) to end of treatment (Visit 7); • number of subjects experiencing bronchospasm clinically or spirometrically determined following IMP administration at the start and end of treatment; • P. aeruginosa resistance to colistin sulphate as determined by in-vitro susceptibility testing on sputum from Screening/Randomisation (Visit 1/Visit 2) to Visits 3, 5 and end of treatment (Visit 7) as well as on sputum from Exacerbation Visits and clinic visits due to pneumonia; • emergence of other bacterial colonies and any developing resistance in sputum from Screening (Visit 1) to End of Treatment (Visit 7); • haematology, clinical chemistry and renal function tests; • physical examination and vital signs data; • 12-lead electrocardiogram

[6] = system: Pseudomonas aeruginosa; experiment: PROMIS I: Pseudomonas aeruginosa density in sputum; format: in vivo, human; conditions: for Mean change from baseline in P. aeruginosa density (mITT): n = 176
From the text: Least square means in each treatment group, least square mean difference between treatments, their 95% CIs and associated p-values will be estimated.
Summary statistics of the P. aeruginosa density (log 10 CFU/g sputum) and change from baseline (Visit 2) will be provided by treatment group for each trial visit.
Results of the quantitative analysis for P. aeruginosa density will be presented as colony forming units (CFU) count per gram sputum.

For `O=C(O)c1cn(C2CC2)c2cc(N3CCNCC3)c(F)cc2c1=O` [ciprofloxacin], the primary endpoints [1] is given as “failed to achieve their primary endpoints”.
In the case of colistimethate sodium, the “adverse respiratory effects (cough, dyspnoea, bronchospasm, sore throat), people affected” value [2] is given as “at least 1 in 10”, the “annual rate of exacerbations” value ([3]; CMS 1 MIU (33 mg CBA) by I-neb twice a day, 12 months, placebo 0.95) is given as 0.58 per patient per year and the “severe exacerbations (requiring intravenous antibiotics and/or hospitalization), RR” value ([3]; CMS I-neb vs placebo, 95% CI 0.23-0.74, p=0.003) is given as 0.41. For the same compound, the “time to first exacerbation, Hazard Ratio (HR)” value ([3]; CMS I-neb vs placebo, 95% CI 0.43-0.81, p=0.00074) was 0.59, the “rate ratio (RR) of annual rate of exacerbations vs placebo” value ([3]; CMS I-neb vs placebo, 95% CI 0.46-0.82, p=0.00101) was 0.61 and the “time to first exacerbation (primary endpoint) vs placebo” value (“time to first exacerbation … vs placebo” for short) [4] was “not statistically different”. The “time to first exacerbation … vs placebo” value ([4]; listed as CMS) was “failed to achieve its primary endpoint”, the broncospasm experienced clinically [5] was 0.6% and the “safety and tolerability (in words)” value [5] was “safe and well tolerated”. The “Mean change from baseline in P. aeruginosa density (mITT)” value ([6]; Visit 3 (28 days)) was −1.59 log10(CFU/mL), the “Mean change from baseline in P. aeruginosa density (mITT)” value ([6]; Visit 5 (6 months)) was −1.39 log10(CFU/mL) and the “Mean change from baseline in P. aeruginosa density (mITT)” value ([6]; Visit 6 (9 months)) was −1.56 log10(CFU/mL). For the same compound, the “Mean change from baseline in P. aeruginosa density (mITT)” value ([6]; Visit 7 (12 months/EOT), includes those who discontinued early) was −0.86 log10(CFU/mL) and the “P. aeruginosa density (in words)” value ([6]; patients on colistimethate sodium over the study) was “fell rapidly and remained suppressed; also recorded: falls rapidly and remains suppressed”.
For colistin, the “time to first exacerbation … vs placebo” value [4] is given as “not to be associated with a statistically significant improvement”.
